The text below walks through data of article PMC6320368, “A T-cell receptor escape channel allows broad T-cell response to CD1b and membrane phospholipids” (Nature Communications, 2019).

The target of assay [1] is T1, CD1b (human CD1b monomer with β2m; CD1b tetramer) (Homo sapiens, UniProt P29016).
T1 construct: soluble ectodomain with beta-2-microglobulin; His-tag purified; from High Five insect cells or HEK293S GnTI- (crystals, SPR); tetramer-facility monomers from U293 cells; with Beta-2-microglobulin
The experiment in a line: lipid-loaded CD1b tetramer staining of T-cell lines. The format is cell-based. Particulars: indirect read-out of lipid loading; CHAPS, citrate pH 7.4, 37 °C loading.

Assay [2] has as its target T1, CD1b (human CD1b monomer with β2m; CD1b tetramer). The experiment in a line: SPR of BC8B TCR on lipid-loaded CD1b; tetramer staining. The format is binding. To be noted: indirect read-out of lipid loading; pH 8.0, 25 °C.

T1 sequence (P29016 20-296): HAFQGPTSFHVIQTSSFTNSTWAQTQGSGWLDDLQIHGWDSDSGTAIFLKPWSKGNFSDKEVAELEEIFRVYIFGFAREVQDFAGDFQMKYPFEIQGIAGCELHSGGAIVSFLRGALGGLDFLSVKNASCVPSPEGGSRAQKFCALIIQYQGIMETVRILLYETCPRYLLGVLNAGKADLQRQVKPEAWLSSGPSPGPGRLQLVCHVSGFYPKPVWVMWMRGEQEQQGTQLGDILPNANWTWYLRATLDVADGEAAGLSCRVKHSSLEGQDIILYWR
T1 sequence (P61769 21-119 partner): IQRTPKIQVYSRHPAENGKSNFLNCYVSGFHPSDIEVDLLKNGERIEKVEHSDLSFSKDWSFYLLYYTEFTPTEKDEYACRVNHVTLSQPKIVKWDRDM

As for `CCCCCCCC/C=C\CCCCCCCC(=O)OC[C@@H](O)COP(=O)(O)O` [LPA, lysophosphatidic acid], the “lipid-loaded CD1b tetramer staining of T-cell lines” value in assay [1] is “specifically stained with phospholipids carrying small head groups, such as PG and LPA”. As to `CCCCCCCCCCCCC/C=C/[C@@H](O)[C@H](COP(=O)([O-])OCC[N+](C)(C)C)NC(=O)CCCCCCCCCCCCCCC` [SM, sphingomyelin], the “SPR of BC8B TCR on lipid-loaded CD1b; tetramer staining” value in assay [2] is “The BC8B TCR detectably interacted with CD1b presenting the sphingolipid antigens, SM and sulfatide”.
